Activity calls are given as the source filed them. No cut-off for these calls is given here.
Legend:
RAW264.7 [1] = experiment: Cytotoxicity against mouse RAW264.7 cells at 100 uM by MTT assay; type: cell-based; details: raw264.7, 100 µM
Mus musculus [2] = experiment: Reduction of carrageenan-induced paw edema volume in mouse at 125 mg/kg, po after 3 hrs relative to control; type: functional; parameters: scale not given: the % may be the effect or the level left
RAW264.7 [3] = experiment: Effect on IL1-beta production in mouse RAW264.7 cells at 100 uM; type: functional
RAW264.7 [4] = experiment: Reduction of IL1-beta mRNA synthesis in mouse RAW264.7 cells at 100 uM; type: functional, cell-based
Mus musculus [5] = experiment: Reduction of carrageenan-induced paw edema volume in mouse at 125 mg/kg, po after 5 hrs relative to control; type: functional; parameters: scale not given: the % may be the effect or the level left
Mus musculus [6] = experiment: Reduction of carrageenan-induced paw edema volume in mouse at 125 mg/kg, po after 1 hr relative to control; type: functional; parameters: scale not given: the % may be the effect or the level left

Compound | Activity (RAW264.7 [1]) | Activity (Mus musculus [2]) [%] | Activity (RAW264.7 [3]) [%] | Activity (RAW264.7 [4]) | Activity (Mus musculus [5]) [%] | Activity (Mus musculus [6]) [%]
COc1cc(C)c(OC)c(O)c1C(C)C [ISOESPINTANOL] | Not Active | 43 | 72 | Active | – | –
CC(C)[C@@]1(C)CCC([C@H]2CC[C@@]3(C)[C@@H]4CC[C@H]5C(C)(C)[C@@H](O)CC[C@@]56C[C@@]46CC[C@]23C)CO1 (stereo partly drawn) [BERENJENOL] | Not Active | 64 | – | – | 51 | 44
